Measurements as given in patent publication US9476099B2 (TRUSTEES OF DARTMOUTH COLLEGE, priority 2012, dated 2016).
Where “and” joins values, the source holds several entries; their conditions need not be identical. Equal entries are not always repeated.

Test system: NT2/D1-R1 control and DNMT3B knockdown cells
Assay: Genome-wide expression analysis with PAM clusters, control and DNMT3B knockdown cells (Tables 8-14)
Details: sh-Ctrl + aza; 10 nM decitabine, 3 days

Nc1ncn([C@H]2C[C@H](O)[C@@H](CO)O2)c(=O)n1 [aza]
ADAMTSL2 NM_014694 expression Mean: 295.667 | ADM NM_001124 expression Mean: 937.101 | AFMID NM_0010109 expression Mean: 303.389 | AHNAK NM_001620 expression Mean: 522.882 | ANAPC13 NM_015391 expression Mean: 549.873 | ANXA1 NM_000700 expression Mean: 1242.05 | ANXA2 NM_0010028 expression Mean: 3575.79 | AW972815 expression Mean: 1125.31 | BAG3 NM_004281 expression Mean: 1275 | BCL11A NM_022893 expression Mean: 399.892 | BIRC5 NM_001168 expression Mean: 873.507 | BTG2 NM_006763 expression Mean: 474.998 | C9orf6 NM_017832 expression Mean: 333.034 | C10orf2 NM_021830 expression Mean: 515.45 | C10orf58 NM_032333 expression Mean: 983.117 | C16orf93 NM_0010149 expression Mean: 392.581 | CA2 NM_000067 expression Mean: 678.212 | CATSPER2 NM_172097 expression Mean: 1806.2 | CAV1 NM_001753 expression Mean: 740.14 | CCND1 NM_053056 expression Mean: 4666.94 | CDKN1A NM_000389 expression Mean: 1938.97 | CDX1 NM_001804 expression Mean: 802.577 | CEACAM1 NM_0010249 expression Mean: 229.793 | CIRH1A NM_032830 expression Mean: 1971.98 | CLCF1 NM_013246 expression Mean: 340.544 | CLDN10 NM_006984 expression Mean: 407.272 | CNN3 NM_001839 expression Mean: 1086.56 | COL7A1 NM_000094 expression Mean: 1054.31 | COL17A1 NM_000494 expression Mean: 521.166 | CRABP2 NM_001878 expression Mean: 2128.79 | CRIPT NM_014171 expression Mean: 613.112 | CTNNB1 NM_0010982 expression Mean: 342.941 | CUEDC1 NM_017949 expression Mean: 525.909 | CXCL14 NM_004887 expression Mean: 366.998 | CXXC1 NM_014593 expression Mean: 1743.77 | CXorf40A NM_178124 expression Mean: 324.823 | CYR61 NM_001554 expression Mean: 634.193 | DDX51 NM_175066 expression Mean: 1671.08 | DIMT1L NM_014473 expression Mean: 893.36 | DUSP5 NM_004419 expression Mean: 1627.42 | EBI3 NM_005755 expression Mean: 650.267 | EIF2C2 NM_012154 expression Mean: 794.459 | ELF3 NM_004433 expression Mean: 306.008 | ELF4 NM_001421 expression Mean: 721.011 | EMILIN2 NM_032048 expression Mean: 650.943 | EOMES NM_005442 expression Mean: 387.137 | FAM53C NM_016605 expression Mean: 2860.96 | FAM123B NM_152424 expression Mean: 1182.82 | FLJ40504 NM_173624 expression Mean: 3003.39 | FOXO3 NM_201559 expression Mean: 639.391 | GAD1 NM_000817 expression Mean: 287.008 | GAD1 NM_013445 expression Mean: 372.485 | GALNAC4S-6 NM_015892 expression Mean: 704.001 | GEMIN4 NM_015721 expression Mean: 1411.28 | GLIPR2 NM_022343 expression Mean: 792.16 | GNL3L NM_019067 expression Mean: 392.011 | GNL3 NM_206826 expression Mean: 1332.63 | GPATCH4 NM_182679 expression Mean: 1117.44 | GPER NM_0010399 expression Mean: 305.922 | GPR56 NM_201524 expression Mean: 378.312 | GPR56 NM_201525 expression Mean: 392.608 | GPR177 NM_0010022 expression Mean: 251.287 and 391.197 | GPR177 NM_024911 expression Mean: 515.533 | GTF3C6 NM_138408 expression Mean: 503.701 | H2AFY NM_004893 expression Mean: 2387.37 | HARS NM_002109 expression Mean: 1887.22 | HCLS1 NM_005335 expression Mean: 319.822 | HES2 NM_019089 expression Mean: 310.888 | HSPA1A NM_005346 expression Mean: 699.362 | HSPA8 NM_006597 expression Mean: 3448.31 | HSPA8 NM_153201 expression Mean: 5257.42 | HSPH1 NM_006644 expression Mean: 565.151 | ID3 NM_002167 expression Mean: 3392.56 | IER3 NM_003897 expression Mean: 835.676 | IL2RB NM_000878 expression Mean: 274.617 | ITPRIP NM_033397 expression Mean: 346.452 | JTV1 NM_006303 expression Mean: 1876.43 | KAT2A NM_021078 expression Mean: 1965.54 | KIAA0101 NM_014736 expression Mean: 468.29 | KRT8 NM_002273 expression Mean: 3394.59 | LEFTY2 NM_003240 expression Mean: 1161.57
